What all share (format): cell-based
Data set [1] has as its system platelet clumps in LiHep blood samples. The data set is described as follows: Platelet count per field of view in blood smears of LiHep blood, Azure B stain. Particulars: for recovery of platelet counts: FIG. 3, fingerstick LiHep blood, vortexed, Azure B. The protocol:
A series of anti-coagulants are tested for their respective effect in reversing platelet clumping formed in blood samples. Fresh fingerstick blood samples were collected into EDTA and LiHep blood collection tubes as described above. Concentrated EDTA was dried for at least one hour at room temperature in microcentrifuge tubes using a vacuum drying oven. Immediately following collection, a 200 uL fraction of the LiHep sample (“LiHep+EDTA”) was passed through two separate EDTA SAFE-T-FIL™ capillary tubes for a double exposure to the EDTA anticoagulant resulting in a final concentration of about 8.8 mM EDTA in blood Another 200 uL fraction (“LiHep+TruEDTA”) was added to the previously prepared vacuum-dried EDTA resulting in a final concentration of 20 mM EDTA in blood. At 30 minutes post collection, another 200 uL fraction of the LiHep sample (“LiHep+EDTA 30 min”) was passed through two separate EDTA SAFE-T-FILL™ capillary tubes for a double exposure to the EDTA anticoagulant. All samples were pulse vortexed with three, five-second bursts at the maximum vortex setting immediately following addition to EDTA. At 30 minutes post collection, all samples were then stained using an Azure B solution from the Differential Quik Stain™ Kit (Modified Giemsa) from Polysciences, Inc. Azure B was added to blood sample at a 1:1 ratio and pipette mixed. A standard blood smear was performed on all samples. Cells were imaged using the bright field setting on an Echo Revolve™ microscope at 20× magnification. Between six to seven different fields of view were captured. Images were analyzed using Image J and the number of platelets present in each field of view was manually counted. Error bars indicate standard deviation of the data set.
Particularly, fresh fingerstick blood samples were collected into EDTA and LiHep blood collection tubes as described above. Concentrated EDTA was dried for at least one hour at room temperature in microcentrifuge tubes using a vacuum drying oven. […] Images were analyzed using Image J and the number of platelets present in each field of view was manually counted. […]

The next data set has as its system white blood cells. Briefly: White blood cell morphology, AO stain, fluorescence microscopy. Particulars: FIG. 2, fingerstick LiHep blood, 60 M EDTA, 3×EDTA sample 60 mM. The protocol:
Next, it was examined whether EDTA exposure impacts blood cell morphology. Particularly, fresh fingerstick blood samples were collected into EDTA and LiHep blood collection tubes. Concentrated EDTA was dried for at least one hour at room temperature in microcentrifuge tubes using a vacuum drying oven. A 200 uL fraction of the LiHep sample (“1×”) was added to the previously prepared vacuum-dried EDTA resulting in a final concentration of 20 mM EDTA in blood. Another 200 uL fraction of the LiHep sample (“3×”) was added to the previously prepared vacuum-dried EDTA resulting in a final concentration of 60 mM EDTA in blood. […] Cells were imaged using the fluorescence setting on an Echo Revolve microscope. […] To capture the green fluorescence of AO, which labeled the nuclei of white blood cells, a blue LED light source with excitation filter at 470/40 nm was paired with emission filter at 525/50 nm, with a dichroic mirror at 495 nm. To capture the red fluorescence of AO, which labeled the cytoplasmic compartments of white blood cells, the same blue LED light source was paired with emission filter at 635/60 nm with a dichroic mirror at 600 nm. […]
Particularly, fresh venipuncture blood samples were collected into EDTA and LiHep blood collection tubes as described above. […] Cells were imaged using the fluorescence setting on an Echo Revolve™ microscope. […]

Data set [2] has as its system platelets in venipuncture and fingerstick blood. Briefly: Platelet clumping after blood collection into anticoagulant tubes. Particulars: venipuncture and fingerstick blood collected in anticoagulant tubes. An excerpt: Blood used in the following examples came from either venipuncture or fingerstick samples. Standard phlebotomy practices were followed to collect donor venipuncture blood in either BD Vacutainer′ EDTA blood collection tubes or BD Vacutainer′ PST lithium heparin plasma separation blood collection tubes. Standard phlebotomy practices were followed to collect donor fingerstick blood in either LiHep SAFE-T-FILL™ tubes or EDTA SAFE-T-FIL™tubes. All blood samples were stored at room temperature until use. Samples were analyzed within 12 hours of blood collection.
Platelet clumping appeared to occur spontaneously following blood collection. For all studies, an EDTA control sample was used in which blood from either venipuncture or fingerstick were collected into EDTA tubes. EDTA venipuncture control samples were collected into EDTA blood collection tubes from the same donor using the same port as the lithium heparin samples.

Data set [3] has as its system platelet clumps in LiHep blood samples. Briefly: Platelet count per field of view in blood smears of LiHep blood, acridine orange (AO) stain. Particulars: for declumping activity / increase in platelet count due to reversal of platelet clumping: Example 8, FIG. 7 and 8, LiHep blood.
Description: Particularly, fresh venipuncture blood samples were collected into EDTA and LiHep blood collection tubes as described above. Concentrated EDTA was dried for at least one hour at room temperature in microcentrifuge tubes using a vacuum drying oven. […] This sample was pulse vortexed with three, ten second bursts at the maximum vortex setting. […] This sample was sonicated in a water bath sonicator for 1 minute. […] This sample was pipette mixed using a Tecan Carvo Omni™ automated pipettor. To mix, 150 uL of sample was aspirated and dispensed at 1 mL/s 0.5 mm from the bottom of the tube. This mixing cycle was repeated 30 times. All samples were then stained using an acridine orange (AO). AO was added to blood sample at a final concentration of 10 ug/mL, pipette mixed and incubated for 5 minutes at room temperature. A standard blood smear was performed on all samples. A coverslip was placed on top of the sample immediately following the blood smear to prevent sample drying out. Cells were imaged using the fluorescence setting on an Echo Revolve™ microscope. AO is a pH-sensitive cationic dye. When bound to double-stranded DNA (for example, in the nuclear compartment), the dye fluoresces green with an excitation maximum at 502 nm and emission maximum at 525 nm. When bound to single stranded DNA and RNA (for example, in the cytoplasm) or when the dye is in an acidic environment (for example, in lysosomes), the dye fluoresces red with an excitation maximum at 460 nm and emission maximum at 650 nm. […] Between five to eight different fields of view were captured. Images were analyzed using Image J and the number of platelets present in each field of view was manually counted. Error bars indicate standard deviation of the data set.
Particularly, fresh venipuncture blood samples were collected into EDTA and LiHep blood collection tubes as described above. Concentrated EDTA was dried for at least one hour at room temperature in microcentrifuge tubes using a vacuum drying oven. […] Both samples were pulse vortexed with three, ten-second bursts at the maximum vortex setting. Samples were then stained using acridine orange (AO). AO was added to blood sample at a final concentration of 10 ug/mL, pipette mixed and incubated for 5 minutes at room temperature. A standard blood smear was performed on all samples. A coverslip was placed on top of the sample immediately following the blood smear to prevent sample drying out. Cells were imaged using the fluorescence setting on an Echo Revolve™ microscope. AO is a pH-sensitive cationic dye. When bound to double-stranded DNA (for example, in the nuclear compartment), the dye fluoresces green with an excitation maximum at 502 nm and emission maximum at 525 nm. When bound to single stranded DNA and RNA (for example, in the cytoplasm) or when the dye is in an acidic environment (for example, in lysosomes), the dye fluoresces red with an excitation maximum at 460 nm and emission maximum at 650 nm. […] Between five to seven different fields of view were captured. Images were analyzed using Image J and the number of platelets present in each field of view was manually counted. Error bars indicate standard deviation of the data set.
To investigate the ability of citric acid to reverse platelet clumping, venipuncture blood samples were collected into EDTA and LiHep blood collection tubes as described above. […] A second 15 μL fraction of LiHep blood was treated with citric acid at a final concentration of 5 mM. To encourage platelet declump, samples were then vortexed. Samples were stained using acridine orange and imaged using an Echo Revolve™ Microscope at 20× magnification. Images were analyzed using Image J and the number of platelets present in each field of view (FOV) across 10 FOVs was manually counted.
Venipuncture blood samples were collected into EDTA and LiHep blood collection tubes as described above. A 15 μL aliquot of LiHep blood was treated with 5 mM NTA an vortexed vigorously.

“Also recorded” adds a separate entry of the source.

The source of these data is patent US12455218B2, “Methods and compositions for reversing platelet clumping” (Truvian Sciences, Inc., priority 2019, dated 2025).

With `O=C(O)CN(CCN(CC(=O)O)CC(=O)O)CC(=O)O` [EDTA, ethylenediaminetetraacetic acid], the “recovery of platelet counts” value in data set [1] (17.6 mM EDTA (LiHep+EDTA)) and in data set [1] (20 mM EDTA (LiHep+TruEDTA)) was “greater than 40%” throughout. Also, in data set [1] (FIG. 3 legend, blood collected in LiHep tubes), the “reversed platelet clumping as compared to control groups” value is given as “about 40%”. In addition, the “morphology of white blood cells” value in the data set with white blood cells was “negatively impact”. The “platelet clumping following blood collection” value in data set [2] is listed as “no detectible platelet clumping”.

In the case of `O=C(O)CN(CC(=O)O)CC(=O)O` [NTA, N,N-bis(carboxymethyl)glycine], the “declumping activity / increase in platelet count due to reversal of platelet clumping” value in data set [3] is given as “showed declumping activity; also recorded: increase in platelet count”. The same molecule gave a recovery of platelets in data set [3] (FIG. 8, venipuncture LiHep blood, 5 mM NTA, vortexed vigorously, 10 FOVs) of 71%.

As to `O=C(O)CC(O)(CC(=O)O)C(=O)O` [citric acid, 2-hydroxypropane-1,2,3-tricarboxylic acid], the “declumping activity / increase in platelet count due to reversal of platelet clumping” value in data set [3] was “increase in platelet count”; in data set [3] (listed as Citric acid), “showed declumping activity”. Moreover, in data set [3] (FIG. 7, venipuncture LiHep blood, citric acid 5 mM, vortexed, 10 FOVs), the “recovery of platelet counts” value stood at 66%.

Consider Lithium heparin, for which the “platelet clumping following blood collection” value in data set [2] is “Significant amount of platelet clumping”.
